Results as given in patent publication US20210179620A1, “MESOIONIC I[…] AND DERIVATIVES FOR COMBATING ANIMAL PESTS” (BASF SE, priority 2017, published 2021).

How the values were obtained:
[1] = system: green peach aphid (Myzus persicae); test: Green peach aphid systemic test, artificial diet in 96-well microtiter plates; format: in vivo; details: 72 h, adult aphids on treated artificial diet, 3 days, read-out: mortality in comparison with untreated controls
Text: Green Peach Aphid (Myzus persicae):
For evaluating control of green peach aphid (Myzus persicae) through systemic means the test unit consisted of 96-well-microtiter plates containing liquid artificial diet under an artificial membrane.
The compounds were formulated using a solution containing 75% v/v water and 25% v/v DMSO. Different concentrations of formulated compounds were pipetted into the 30 aphid diet, using a custom built pipetter, at two replications.
After application, 5-8 adult aphids were placed on the artificial membrane inside the microtiter plate wells. The aphids were then allowed to suck on the treated aphid diet and incubated at about 23˜1° C. and about 50˜5% relative humidity for 3 days. Aphid mortality and fecundity was then visually assessed.

[2] = system: vetch aphid (Megoura viciae); test: Vetch aphid contact or systemic test, broad bean leaf disks in 24-well microtiter plates; format: in vivo; details: foliar, 120 h, sprayed broad bean leaf disks, adult aphids, 5 days, read-out: mortality in comparison with untreated controls
Method: Vetch Aphid (Megoura viciae):
For evaluating control of vetch aphid (Megoura viciae) through contact or systemic means the test unit consisted of 24-well-microtiter plates containing broad bean leaf disks.
The compounds were formulated using a solution containing 75% v/v water and 25% v/v DMSO. Different concentrations of formulated compounds were sprayed onto the leaf disks at 2.5 μl, using a custom built micro atomizer, at two replications. After application, the leaf disks were air-dried and 5-8 adult aphids placed on the leaf disks inside the microtiter plate wells. The aphids were then allowed to suck on the treated leaf disks and incubated at about 23+1° C. and about 50+5% relative humidity for 5 days. Aphid mortality and fecundity was then visually assessed.

Cn1c(C(=O)CCl)c([O-])[n+]2c1SCC2c1cnc(Cl)s1 (centres unmarked) [C-1, 6-(2-chloroacetyl)-3-(2-chlorothiazol-5-yl)-7-methyl-2,3-dihydroimidazo[2,1-b]thiazol-4-ium-5-olate]
mortality at 2500 ppm [1]: > 75% | mortality at 2500 ppm [2]: > 75%
